From patent publication EP4796171A2 (Zealand Pharma A/S, priority 2017, dated 2018)
Where “and” joins values, the source holds several entries; their conditions need not be identical. Equal entries are not always repeated. Entries after “also recorded” stand apart in the source; their conditions may differ. Where two headings read alike, the source gives them in different places. Values belong to the substance of their own block, whether it stands above or below them.

Tests used:
human GLP-2 receptors = biological target: T1, human GLP-2 receptors (Homo sapiens, UniProt O95838, D470N); assay: GLP-2 receptor efficacy assay (cAMP AlphaScreen); assay type: cell-based
T1 sequence (O95838 1-553 D470N): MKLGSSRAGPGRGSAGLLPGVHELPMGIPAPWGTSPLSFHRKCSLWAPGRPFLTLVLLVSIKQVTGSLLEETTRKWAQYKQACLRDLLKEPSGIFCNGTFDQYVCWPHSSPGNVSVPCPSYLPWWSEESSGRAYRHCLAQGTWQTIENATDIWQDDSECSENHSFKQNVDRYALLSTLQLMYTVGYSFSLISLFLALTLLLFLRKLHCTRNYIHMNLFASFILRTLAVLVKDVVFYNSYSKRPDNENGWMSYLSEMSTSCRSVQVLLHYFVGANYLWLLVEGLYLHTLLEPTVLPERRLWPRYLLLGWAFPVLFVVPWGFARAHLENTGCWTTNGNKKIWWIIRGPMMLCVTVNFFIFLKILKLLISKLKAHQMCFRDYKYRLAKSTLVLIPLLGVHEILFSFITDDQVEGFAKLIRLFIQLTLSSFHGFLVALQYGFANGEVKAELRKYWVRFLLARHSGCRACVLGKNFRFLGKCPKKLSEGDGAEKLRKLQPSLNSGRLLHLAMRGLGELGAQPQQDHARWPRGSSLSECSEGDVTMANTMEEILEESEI
Description: The hGLP2-R was purchased from MRC-geneservice, Babraham, Cambridge as an Image clone: 5363415 (11924-117). For subcloning into a mammalian expression vector, primers for subcloning were obtained from DNA-Technology, Risskov, Denmark. The 5' and 3' primers used for the PCR reaction include terminal restriction sites for cloning and the context of the 5' primer is modified to a Kozak consensus without changing the sequence of the product encoded by the ORF. A standard PCR reaction was run using Image clone 5363415 (11924-117) as a template with the above mentioned primers and Polymerase Herculase II Fusion in a total vol. of 50µl. The generated PCR product was purified using GFX PCR and Gel band purification kit, digested with restriction enzymes and cloned into the mammalian expression vector using Rapid DNA Ligation Kit. Ligation reaction was transformed to XL10 Gold Ultracompetent cells and colonies were picked for DNA production using Endofree Plasmid maxi kit. Subsequent sequence analysis was conducted by MWG Eurofins, Germany.
HEK293 cells were transfected using the Lipofectamine PLUS transfection method. The day before transfection, HEK293 cells were seeded in two T75 flasks at a density of 2 x 10^6 cells / T75 flask in cell culturing medium without antibiotics. On the day of transfection, cells were washed with 1x DPBS and medium was replaced with Optimem to a volume of 5 mL / T75 flask before addition of Lipofectamine-plasmid complexes were added gently and drop wise to the cells in T75 flasks and replaced with growth medium after 3 hours and again to growth medium supplemented with 500µg/mL G418 after 24 hours. After 4 weeks in G418 selection, clones were picked and tested in a functional assay.
The cAMP AlphaScreen® assay from Perkin Elmer was used to quantitate the cAMP response to activation of the GLP2 receptor. […] Table 2: GLP-2R EC50 measurements

[1] = Phase 2 clinical trial, PK profile of ZP1848 and metabolites in SBS patients; assay type: in vivo, human; details: for Conc.: plasma
Description: A phase 2 clinical trial was conducted to i.a. determine the PK profile of ZP1848 and metabolites in human SBS patients.
The study was designed as a randomized, cross-over and double-blinded with three different doses of ZP1848 (10 mg, 1 mg, 0.1 mg) in 16 SBS patients.
The 18 SBS patients (16 patients completed the study) were randomized evenly and in a double-blinded fashion to each of the six cross-over dose level combinations: 10 mg/1 mg, 10 mg/0.1 mg, 1 mg/10 mg, 1 mg/0.1 mg, 0.1 mg/10 mg, 0.1 mg/1 mg of ZP1848. The patients were injected once daily (QD) subcutaneously with the above doses of ZP1848.
Blood samples for PK analysis were collected on several study visits throughout the study period: the study comprised a 1st baseline balance study (4 days), a 1st treatment period (21 days) including a 1st treatment balance study (last 4 days of 1st treatment period), followed by a wash-out period (at least 4 weeks); and a 2nd baseline balance study (4 days), a 2nd treatment period (21 days) including a 2nd treatment balance study (last 4 days of 2nd treatment period) and a follow-up period (at least 4 weeks).
PK sampling was performed at visit 11 (1st treatment, balance study) and visit 17 (second day of 2nd baseline study - after a wash out period), and again at visit 25 (2nd treatment balance study) and at visit 29 (last day of follow-up period).
At day visit 11 and visit 25 a full PK profile in steady state was investigated. PK samples were taken prior to injection of ZP1848, and at the following time points (+/- 10 minutes) after trial product administration: 1h, 2h, 4h, 6h, 8h, 10h, 12h and 24h. Each PK sample contained 2 mL of blood, resulting in a total of […] blood drawn for PK purposes. The plasma sample was immediately stored at -80°C after sampling.
Plasma samples were analyzed after immunoaffinity extraction followed by liquid chromatography mass spectrometry (LC-MS/MS). For each patient plasma concentrations were used for calculation of the pharmacokinetic parameters using the non-compartmental approach in Excel. Plasma terminal elimination half-life (T½) was determined as In(2)/ke where ke is the magnitude of the slope of the log linear regression of the log concentration versus time profile during the terminal phase.

[2] = background statement; cited from earlier work
[3] = plasma of healthy subjects after SC injections (once daily or once weekly) or single IV infusion of glepaglutide; details: human, up to 168 hours post dose
[4] = plasma samples from SBS patients injected once daily (QD) subcutaneously with ZP1848; details: human, up to Day 56
SBS patients = assay: Fecal wet weight output in SBS-IF/SBS-II patients (metabolic balance studies); assay type: in vivo, human; details: change from baseline
Description: The study was designed as a randomized, cross-over and double-blinded with three different doses of ZP1848 (10 mg, 1 mg, 0.1 mg) in 16 SBS patients. The study protocol was approved by the Danish Medical Agency and The Danish Committee on Health Research Ethics.
The 18 SBS patients were randomized evenly and in a double-blinded fashion to each of the six cross-over dose level combinations: 10 mg/1 mg, 10 mg/0.1 mg, 1 mg/10 mg, 1 mg/0.1 mg, 0.1 mg/10 mg, 0.1 mg/1 mg of ZP1848. The SBS patient group comprised 9 females, 9 males; hereof 13 SBS-IF patients and 5 SBS-II patients. Mean age was 62 years, mean short bowel length was 110 cm, and two SBS-IF patients had > 50% colon in continuity. The patients were injected once daily subcutaneously with the above doses of ZP1848.
The aim of this study was to evaluate efficacy of ZP1848 on fecal wet weight output in patients with SBS-II and SBS-IF and thus the absolute change from baseline in wet weight of fecal output as measured by metabolic balance studies prior to and on the […] of each treatment period.

Beagle Dogs = assay: 39-week subcutaneous administration to beagle dogs with 6-week recovery, intestine length and weight; assay type: in vivo; details: vs controls
Description: ZP1848 (0.25, 1 or 5 mg/kg/day) was given for 39 weeks subcutaneously to beagle dogs (22 to 24 weeks). Vehicle was used as the control. Recovery from any effect was evaluated during a 6 week recovery period. The study was conducted in accordance with the applicable sections of the United Kingdom Animals (Scientific Procedures) Act 1986, Amendment Regulations 2012 (the Act).
After 39 weeks the dogs were sacrificed and all animals were subject to a detailed necropsy. The length of the small and large intestines were measured separately and recorded in centimeters. The entire length of the gastrointestinal tract (starting at the duodenum and ending at the rectum) was removed and trimmed of any excessive mesentery, connective or adipose tissue and the measurements for the small and large intestine recorded by laying the small intestine and large intestine on a clean surface and measured with a tape measure. The sections required for histopathology were left unopened and flushed through with water. The remainder were opened, cleaned with water, carefully blotted dry prior to weighing. On completion of length and weight measurements, the gastrointestinal tract was processed and fixed in 10% Neutral Buffered Formalin, as per standard necropsy practice for this species.

Wistar rats = assay: Intestinotrophic effects after 26 weeks of daily SC dosing in rats; assay type: in vivo
Description: Wistar rats were dosed subcutaneously (SC) with vehicle, 1, 3 and 10 mg/kg ZP1848 on a daily basis for 26 weeks. Further sub-groups of control and high-dose animals were allowed a 6-week recovery period following completion of the dosing period. […] The length and the weight of the small and large intestines were measured at necropsy as indicators of intestinotrophic effects and the intestinal tract was evaluated histologically.

[5] = females, 5 mg/kg/day SC, 39 weeks
[6] = females, end of six-week recovery period
[7] = males, 5 mg/kg/day SC, 39 weeks
[8] = males, end of six-week recovery period
[9] = females, 10 mg/kg SC daily, 26 weeks, main study animals
[10] = females, 10 mg/kg, recovery animals (6-week recovery)
[11] = males, 10 mg/kg SC daily, 26 weeks, main study animals
[12] = males, 10 mg/kg, recovery animals (6-week recovery)

EC50 (human GLP-2 receptors): 0.072 nM
in vitro potency (human GLP-2 receptors; in words, relative to ZP1848): comparable to ZP1848
plasma level ([1]; in words, relative to ZP1848 after administration of ZP1848): in the same range as that of ZP1848
Conc. ([1]; Day 0 (visit 11 or 25, treatment balance study), ZP1848 SC once daily, individual subjects): 0.131 nM and 0.543 nM
Conc. ([1]; Day 28-56 (visit 17 or 29, after wash-out/follow-up), individual subjects): 0.0326 nM and 0.0614 nM
Half-life ([1]; terminal, from Day 0 and wash-out/follow-up concentrations, individual subjects): 240 h
Substance: H-HGEGTFSSELATILDALAARDFIAWLIATKITDKK-OH [ZP2711]

Substance: lixisenatide
Half-life [2]: 2 to 4 h

Substance: H-HGEGTFSSELATILDALAARDFIAWLIATKITDKKKKKK-NH2
fragment found [3]: ZP2469 (ZP18481-34), major; also recorded: ZP2711 (ZP18481-35), major
fragment found [4]: ZP2469, major; also recorded: ZP2711, major

EC50 (human GLP-2 receptors): 0.11 nM
Substance: H-HGEGTFSSELATILDALAARDFIAWLIATKITDKKK-OH [ZP2949]

EC50 (human GLP-2 receptors): 0.3 nM
Substance: H-HGEGTFSSELATILDALAARDFIAWLIATKITDKKKKKK-NH2 [ZP1848] [listing 1 of 2 here]

Substance: H-HGEGTFSSELATILDALAARDFIAWLIATKITDKKKKKK-NH2 [ZP1848] [listing 2 of 2 here]
Changes in Absolute Fecal Wet Weight Output (Means) (SBS patients; IF (n=11), 0.1 mg SC once daily): 196 g/day
Changes in Absolute Fecal Wet Weight Output (Means) (SBS patients; IF (n=11), 1 mg + 10 mg pooled): -741 g/day
Changes in Absolute Fecal Wet Weight Output (Means) (SBS patients; IF (n=11), 1 mg SC once daily): -587 g/day
Changes in Absolute Fecal Wet Weight Output (Means) (SBS patients; IF (n=11), 10 mg SC once daily): -894 g/day
Changes in Absolute Fecal Wet Weight Output (Means) (SBS patients; II (n=5), 0.1 mg SC once daily): -37 g/day
Changes in Absolute Fecal Wet Weight Output (Means) (SBS patients; II (n=5), 1 mg + 10 mg pooled): -570 g/day
Changes in Absolute Fecal Wet Weight Output (Means) (SBS patients; II (n=5), 1 mg SC once daily): -303 g/day
Changes in Absolute Fecal Wet Weight Output (Means) (SBS patients; II (n=5), 10 mg SC once daily): -837 g/day
Changes in Absolute Fecal Wet Weight Output (Means) (SBS patients; II+IF (n=16), 0.1 mg SC once daily): 173 g/day
Changes in Absolute Fecal Wet Weight Output (Means) (SBS patients; II+IF (n=16), 1 mg + 10 mg pooled): -713 g/day
Changes in Absolute Fecal Wet Weight Output (Means) (SBS patients; II+IF (n=16), 1 mg SC once daily): -592 g/day
Changes in Absolute Fecal Wet Weight Output (Means) (SBS patients; II+IF (n=16), 10 mg SC once daily): -833 g/day
increase in small intestine length (Beagle Dogs; [5]): 37%
increase in small intestine weight (Beagle Dogs; [5]): 80%
increase in small intestine length (Beagle Dogs; [6]): 19%
increase in small intestine weight (Beagle Dogs; [6]): 34%
increase in small intestine length (Beagle Dogs; [7]): 46%
increase in small intestine weight (Beagle Dogs; [7]): 103%
increase in small intestine length (Beagle Dogs; [8]): 16%
increase in small intestine weight (Beagle Dogs; [8]): 78%
SI length, percentage increase relative to control group (Wistar rats; [9]): 47%
SI weight, percentage increase relative to control group (Wistar rats; [9]): 238%
SI length, percentage increase relative to control group (Wistar rats; [10]): 45%
SI weight, percentage increase relative to control group (Wistar rats; [10]): 101%
length and weight of the small intestines (Wistar rats; in words, 1, 3 and 10 mg/kg SC daily, 26 weeks): dose-related significant (p<0.01) increases
length and weight of the large intestine (Wistar rats; in words, 26 weeks SC daily): slightly increased
mucosal hyperplasia of the duodenum, jejunum and ileum (Wistar rats; in words, histology, 26 weeks SC daily): dose-related increase
SI length, percentage increase relative to control group (Wistar rats; [11]): 38%
SI weight, percentage increase relative to control group (Wistar rats; [11]): 190%
SI length, percentage increase relative to control group (Wistar rats; [12]): 39%
SI weight, percentage increase relative to control group (Wistar rats; [12]): 85%

Substance: H-HGEGSFSSELSTILDALAARDFIAWLIATKITDKKKKKK-NH2 [ZP1846]
EC50 (human GLP-2 receptors): 0.26 nM
